Experimental data: patent US20250082786A1, “FLUORESCENT MARKERS FOR NEUROFIBRILLAR TANGLES AND USES THEREOF” (FONDAZIONE ISTITUTO ITALIANO DI TECNOLOGIA, priority 2021, published 2025)

How the values were obtained:
[1] = tested on: intracellular TAU aggregates in human iPSC-derived cortical neurons; assay: Probe staining of hiPSC-derived cortical neurons, colocalization with anti-T22 and anti-AT8 antibodies; format: cell-based; conditions: 100 μM probe, 30 minutes at 37° C., cortical neurons at 30 days in vitro
Description: FIG. 3. (A) Representative binarized fluorescence image showing human iPSC-derived cortical neurons at 30 days in vitro after incubation with BT1 (100 μM) for 30 minutes at 37° C. and staining with anti-T22 and anti-AT8 antibodies. • (B) Representative binarized fluorescence image showing human iPSC-derived cortical neurons at 30 days in vitro after incubation with TAU1 (100 μM) for 30 minutes at 37° C. and staining with anti-T22 and anti-AT8 antibodies. • (C) Fluorescence composite of the above representative images. […] (D) The probe specificity is calculated as the ratio between the antibody intensity within the area covered by BT1 or TAU1 out of the total antibody intensity (n=3), as determined using Image J. Images were acquired at the FV10i confocal microscope using a […] magnification. […]
Fixed hiPSC-derived cortical neurons and RGCs were permeabilized with 0.2% Triton X-100 (Merck Life Science) in 1×TBS and incubated for 1 hour in blocking solution containing 1×TBS, 0.2% Triton X-100, and 5% goat serum (Merck Life Science). […] Fluorescence intensity per field of view was determined using the Software Image J.
The ability of the BT1 probe to stain specifically intracellular TAU aggregates was determined as a function of the antibody fluorescent signal detected within the binarized probe signal.

[2] = tested on: intracellular TAU aggregates in human iPSC-derived retinal ganglion cells; assay: Probe staining of hiPSC-derived retinal ganglion cells, colocalization with anti-T22 and anti-AT8 antibodies; format: cell-based; conditions: 100 μM probe, 30 minutes at 37° C., retinal ganglion cells at 30 days in vitro
Description: FIG. 4. (A) Representative binarized fluorescence image showing human iPSC-derived retinal ganglion cells at 30 days in vitro after incubation with BT1 (100 μM) for 30 minutes at 37° C. and staining with anti-T22 and anti-AT8 antibodies. • (B) Representative binarized fluorescence image showing human iPSC-derived retinal ganglion cells at 30 days in vitro after incubation with TAU1 (100 μM) for 30 minutes at 37° C. and staining with anti-T22 and anti-AT8 antibodies. • (C) Fluorescence composite of the above representative images. The fluorescent image of BT1 was obtained using excitation at 520 nm with a 555/15 nm filter in detection; TAU1 was obtained using excitation at 470 nm with a 510/5 nm filter in detection. […] Cell nuclei were stained with DAPI. • (D) The probe specificity is calculated as the ratio between the antibody intensity within the area covered by BT1 or TAU1 out of the total antibody intensity (n=3), as determined using Image J. Images were acquired at the FV10i confocal microscope using a 60× magnification.
The differentiation protocol was a revisited version of Sluch V. et al, 2017 with minor modifications. Human iPSCs were dissociated to single cells with 1× Accutase (Merck Life science) and plated on growth factor-reduced Matrigel coated plates at a density of 1000 cells/mm2 in mTeSR Plus supplemented with 10 μM Rock-inhibitor Y-27632 (Peprotech). […]

Compound: CC1=CC(/C=C/c2ccc(/C=C/c3ccc(N(C)C)cc3)cc2)=[N+]2C1=Cc1cccn1[B-]2(F)F [BT1, 3-((E)-4-((E)-4-(dimethylamino)styryl)styryl)-5,5-difluoro-1-methyl-5H-dipyrrolo[1,2-c:2′,1′-f][1,3,2]diazaborinin-4-ium-5-uide]
- Ability to detect phosphorylated (AT8-positive) aggregates [1]: higher ability to detect phosphorylated aggregates when compared to the TAU1 probe
- Colocalization of probe signal with AT8 versus T22 antibody signal [1]: higher colocalization with AT8 signal in respect to T22
- Ability to detect phosphorylated (AT8-positive) aggregates [2]: higher ability to detect phosphorylated aggregates when compared to the TAU1 probe
- Colocalization of probe signal with AT8 versus T22 antibody signal [2]: higher colocalization with AT8 signal in respect to T22
